According to patent publication US20210346459A1, “Application of Dalargin for the prevention of VRIs and prevention of the development of complications during VRIs” (priority 2020, published 2021):
Read-outs that look alike come from different tables or passages of the source. Marks after values point to notes of the source that are not given here. Square brackets hold non-standard residues; d marks the D form. Peptide text beside a SMILES is read from it.

Experiments:
[1] = administered by injection or infusion; cited from earlier work
[2] = system: influenza virus A/Puerto Rico/8/34 (H1N1); assay type: in vivo, Balb/c mice
[3] = Group 4: inhalation of 1% solution 14 min twice a day, 0.36 mg/kg
[4] = Group 4: inhalation of 1% solution 14 min twice a day, 0.36 mg/kg, 30 animals
[5] = Group 5: inhalation of 3% solution 45 min twice a day, 1.74 mg/kg
[6] = Group 5: inhalation of 3% solution 45 min twice a day, 1.74 mg/kg, 30 animals
[7] = Group 6: inhalation of 5% solution 55 min twice a day, 3.54 mg/kg
[8] = Group 6: inhalation of 5% solution 55 min twice a day, 3.54 mg/kg, 30 animals
[9] = Group 8: inhalation of 3% solution 45 min twice a day, prophylactic only
[10] = Group 8: inhalation of 3% solution 45 min twice a day, prophylactic only (days 3, 2, 1 and 1 hour before challenge), 30 animals
[11] = Group 9: nasally + pharyngeal spray 0.5 mg/kg, prophylactic only
[12] = Group 9: nasally + pharyngeal spray 0.5 mg/kg, prophylactic only, 30 animals

CC(C)C[C@H](NC(=O)[C@H](Cc1ccccc1)NC(=O)CNC(=O)[C@@H](C)NC(=O)[C@@H](N)Cc1ccc(O)cc1)C(=O)N[C@@H](CCCNC(=N)N)C(=O)O [Dalargin, tyrosyl-D-alanyl-glycyl-phenylalanyl-leucyl-arginine diacetate] (H-Y[dA]GFLR-OH)
Mean elimination half-life [1]: 12 min | Protective effect on lung tissue and lung function compared with comparators ([2]; Dalargin inhalation): superior to that of Tamiflu and Kagocel | Mortality, % [2, 3]: 10.00% | Protective index, % [2, 3]: 88.46% | Mortality by day 9 [2, 4]: 2 | Mortality by day 11 [2, 4]: 1 | Residue [2, 4]: 27* | Mortality, % [2, 5]: 6.67% | Protective index, % [2, 5]: 92.30% | Mortality by day 8 [2, 6]: 1 | Mortality by day 10 [2, 6]: 1 | Residue [2, 6]: 28* | Mortality, % [2, 7]: 6.67% | Protective index, % [2, 7]: 92.30% | Mortality by day 7 [2, 8]: 1 | Mortality by day 10 [2, 8]: 1 | Residue [2, 8]: 28* | Mortality, % [2, 9]: 40.00% | Protective index, % [2, 9]: 53.85% | Mortality by day 5 [2, 10]: 1 | Mortality by day 6 [2, 10]: 3 | Mortality by day 7 [2, 10]: 2 | Mortality by day 8 [2, 10]: 3 | Mortality by day 9 [2, 10]: 3 | Residue ([2]; Group 8: inhalation of 3% solution 45 min twice a day, prophylactic only, 30 animals): 18 | Mortality, % [2, 11]: 50.00% | Protective index, % [2, 11]: 42.31% | Mortality by day 6 [2, 12]: 4 | Mortality by day 7 [2, 12]: 4 | Mortality by day 8 [2, 12]: 4 | Mortality by day 9 [2, 12]: 2 | Mortality by day 10 [2, 12]: 1 | Residue [2, 12]: 15 | Histological features of lung tissue, day 3 after challenge ([2]; oedema, neutrophilic infiltration, collapsed alveolae relative to control): far less pronounced | Efficacy attributed exclusively to the prophylactic protective effect ([2]; preventive administration, without the therapeutic component): 50% | Histological features of lung tissue, day 12 ([2]; surviving animals): One half of the animals receiving Dalargin exhibited no signs of pathology
